From patent US9636418B2 (priority 2013, dated 2017)
Values joined by “and” are separate entries in the source; they are usually repeats but may differ in a detail not shown here. Equal entries are not always repeated. “Also recorded” adds a separate entry of the source. Where two headings read alike, the source gives them in different places.

Assays:
[1] = cyno plasma, 37° C., incubation 0 hr
[2] = in vitro; conditions: human, plasma
[3] = system: male Sprague-Dawley rats; type: in vivo, rat
[4] = system: male CD-1 mice; conditions: mouse, in vivo
[5] = in vitro; conditions: monkey, plasma
[6] = system: male Sprague-Dawley rats; conditions: 5.0 mg/kg s.c., 2 h post peptide injection
[7] = human plasma, 37° C., incubation 0 hr
[8] = system: male CD-1 mice; conditions: mouse, in vivo; remark: listed apart in the source
[9] = 1 mg/kg s.c.
[10] = target: hNav1.7 (Homo sapiens, UniProt Q15858); assay: cell-based; type: cell-based; conditions: values quoted in text (average); read-out: hNav1.7 IC50 in the PX format
hNav1.7, sequence (Q15858 whole entry): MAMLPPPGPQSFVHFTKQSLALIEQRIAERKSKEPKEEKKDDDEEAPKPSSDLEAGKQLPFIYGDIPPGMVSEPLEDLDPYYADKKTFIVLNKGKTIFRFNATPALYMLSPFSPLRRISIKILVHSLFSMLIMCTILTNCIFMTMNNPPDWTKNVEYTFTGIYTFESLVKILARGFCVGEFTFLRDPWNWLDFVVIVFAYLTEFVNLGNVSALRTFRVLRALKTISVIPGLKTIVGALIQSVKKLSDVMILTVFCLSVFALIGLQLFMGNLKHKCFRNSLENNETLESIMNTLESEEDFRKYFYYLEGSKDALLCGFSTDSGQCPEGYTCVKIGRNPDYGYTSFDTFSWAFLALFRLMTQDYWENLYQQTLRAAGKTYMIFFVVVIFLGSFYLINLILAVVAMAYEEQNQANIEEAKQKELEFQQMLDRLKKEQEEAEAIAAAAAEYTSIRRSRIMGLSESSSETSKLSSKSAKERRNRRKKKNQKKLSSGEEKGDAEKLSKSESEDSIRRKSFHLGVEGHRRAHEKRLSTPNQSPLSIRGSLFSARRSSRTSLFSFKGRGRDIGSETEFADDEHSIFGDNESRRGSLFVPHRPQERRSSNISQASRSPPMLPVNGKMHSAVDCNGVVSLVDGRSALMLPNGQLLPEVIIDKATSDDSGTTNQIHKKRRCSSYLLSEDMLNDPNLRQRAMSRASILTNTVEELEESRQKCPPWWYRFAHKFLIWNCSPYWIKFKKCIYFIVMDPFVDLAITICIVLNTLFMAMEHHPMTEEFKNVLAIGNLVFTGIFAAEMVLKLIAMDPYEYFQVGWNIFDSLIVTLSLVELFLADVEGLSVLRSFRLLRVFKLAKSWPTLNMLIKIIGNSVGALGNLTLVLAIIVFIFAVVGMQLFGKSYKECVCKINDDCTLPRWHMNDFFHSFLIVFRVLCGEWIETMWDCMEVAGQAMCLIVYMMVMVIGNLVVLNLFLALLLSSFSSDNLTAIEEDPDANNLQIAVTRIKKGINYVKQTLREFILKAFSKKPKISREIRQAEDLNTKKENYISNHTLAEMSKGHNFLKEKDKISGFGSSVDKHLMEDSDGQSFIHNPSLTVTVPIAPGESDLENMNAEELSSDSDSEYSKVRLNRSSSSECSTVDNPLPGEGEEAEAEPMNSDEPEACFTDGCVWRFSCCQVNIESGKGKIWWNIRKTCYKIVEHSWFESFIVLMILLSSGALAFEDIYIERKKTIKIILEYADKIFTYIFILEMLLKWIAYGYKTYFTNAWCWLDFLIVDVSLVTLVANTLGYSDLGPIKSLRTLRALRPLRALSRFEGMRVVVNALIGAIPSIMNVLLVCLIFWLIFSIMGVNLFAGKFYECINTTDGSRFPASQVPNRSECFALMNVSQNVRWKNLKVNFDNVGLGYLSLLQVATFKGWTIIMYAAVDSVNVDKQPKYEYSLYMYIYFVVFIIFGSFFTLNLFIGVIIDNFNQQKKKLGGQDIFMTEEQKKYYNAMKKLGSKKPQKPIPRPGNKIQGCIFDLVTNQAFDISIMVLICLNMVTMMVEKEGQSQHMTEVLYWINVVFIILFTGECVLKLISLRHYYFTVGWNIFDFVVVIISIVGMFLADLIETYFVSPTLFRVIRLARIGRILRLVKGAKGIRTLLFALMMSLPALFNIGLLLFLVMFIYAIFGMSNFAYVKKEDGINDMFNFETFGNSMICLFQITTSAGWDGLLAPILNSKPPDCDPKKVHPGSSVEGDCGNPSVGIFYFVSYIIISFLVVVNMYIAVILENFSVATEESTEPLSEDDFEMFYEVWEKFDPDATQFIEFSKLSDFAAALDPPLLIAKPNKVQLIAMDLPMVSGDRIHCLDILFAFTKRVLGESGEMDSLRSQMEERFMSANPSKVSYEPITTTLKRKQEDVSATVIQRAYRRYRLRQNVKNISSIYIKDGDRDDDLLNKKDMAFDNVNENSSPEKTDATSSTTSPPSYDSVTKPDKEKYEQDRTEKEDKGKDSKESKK

[11] = system: male CD-1 mice; conditions: for terminal exposure (plasma): 2 h post peptide injection
[12] = in vivo; conditions: CD-1, mouse, sc, 1 mg/kg
[13] = system: TTX-sensitive Nav channels in mouse DRG neuron; type: cell-based
[14] = 0.1, 0.3 or 1.0 mg/kg s.c., 1-hour pre-treatment

CC[C@H](C)[C@H](NC(=O)[C@H](CCCCN)NC(=O)[C@H](CCCNC(=N)N)NC(=O)[C@@H]1CSSC[C@@H]2NC(=O)[C@H](C)NC(=O)[C@H](CCCNC(=N)N)NC(=O)[C@H](CCCCN)NC(=O)[C@H](CO)NC(=O)[C@H](CC(=O)O)NC(=O)[C@@H]3CSSC[C@H](NC(=O)[C@H](CCC(=O)O)NC(=O)[C@H](CC(C)C)NC(=O)CNC(=O)[C@H](CCC(=O)O)NC(=O)[C@H](CSSC[C@H](NC(=O)[C@@H](N)Cc4ccc(O)cc4)C(=O)N[C@@H](CCC(N)=O)C(=O)N[C@@H](CCCCN)C(=O)N[C@@H](Cc4c[nH]c5ccccc45)C(=O)N[C@@H](CCSC)C(=O)N[C@@H](Cc4c[nH]c5ccccc45)C(=O)N[C@@H]([C@@H](C)O)C(=O)N3)NC2=O)C(=O)N[C@@H](CCCCN)C(=O)N[C@@H](CC(C)C)C(=O)N[C@@H](Cc2c[nH]c3ccccc23)C(=O)N1)C(=O)N[C@@H](Cc1c[nH]c2ccccc12)C(N)=O [SEQ ID NO: 112, [Glu20;Trp29]JzTx-V(1-29)]
% Peptide Remaining [1]: 100% | remaining at 2 h [2]: 95% | remaining at 4 h [2]: 84% | remaining at 6 h [2]: 75% | remaining at 8 h [2]: 71% | remaining at 24 h [2]: 48% | formalin response, first or acute phase (0-5 min) ([3]; peptide 5.0 mg/kg s.c. 1-h pre-treatment, vs vehicle (PBS)): no effect | formalin response, second phase (5-40 min) ([3]; rat, in vivo): did not decrease and may have actually increased; also recorded: may have actually increased the pain response | thermal latency / thermal hyperalgesia [4]: no effect | remaining at 2 h [5]: 93% | remaining at 4 h [5]: 91% | remaining at 6 h [5]: 90% | remaining at 8 h [5]: 91% | remaining at 24 h [5]: 89% | terminal exposure (plasma) [6]: 0.994 ± 0.184 µM | % Peptide Remaining [7]: 100% | time spent lifting and/or licking the affected paw, first phase (0-5 min) [8]: no effect and Neither the peptide nor the morphine positive control significantly reduced and 1 mg/kg dose of peptide may have slightly increased the pain response | time spent lifting and/or licking the affected paw, second phase (5-40 min) [8]: no effect; also recorded: but not the peptide significantly reduced | plasma concentration over the in vitro hNav1.7 IC50 by PX ([9]; CD-1 mice): 26 fold | time with measurable plasma concentrations ([9]; mice): 4 h | tolerability ([9]; mice): tolerated | IC50 [10]: 1.5 nM | terminal exposure (plasma) ([11]; 0.1 mg/kg s.c.): 0.0248 ± 0.00668 µM | terminal exposure (plasma) ([11]; 0.3 mg/kg s.c.): 0.121 ± 0.0296 µM | terminal exposure (plasma) ([11]; 1.0 mg/kg s.c.): 0.419 ± 0.226 µM | terminal exposure (plasma) ([11]; 5.0 mg/kg s.c.): 4.73 ± 0.584 µM | total fine movement [11, 14]: no effect | total time rearing [11, 14]: no effect | half-life [12]: ~2.08 h | block of TTX-sensitive Nav current [13]: only blocked around half of TTX-sensitive Nav current; also recorded: only partially blocked TTX-sensitive Nav current; also recorded: only partial inhibition | loss in potency relative to the human clone of Nav1.7 ([13]; TTX-sensitive current, mouse DRG neurons): ~1000 fold
